In one series the target is E. coli DNA gyrase (Escherichia coli, UniProt P0AES6). Description: DNA gyrase supercoiling assay. Particulars: for remaining activity at 1 µM: read-out: RA (residual activity of the enzyme), E. Coli DNA gyrase. The series is classed as biochemical. As for the experimental part: 4.2.3. Determination of Inhibitory Activities on E. coli DNA Gyrase.
All the final compounds were tested for E. coli DNA gyrase inhibitory activity in a supercoiling assay. Activities were determined on streptavidin -coated 96-well microtiter plates from Thermo scientific Pierce. First, the plates were rehydrated with buffer (20 mM Tris -HCl with pH 7.6, 0.01% […]
immobilized. After washing off the unbound oligonucleotide, the enzyme test was performed. The reaction volume of 30 μL in buffer (35 mM Tris-HCl with pH 7.5, 4 mM MgCl 2, 24 mM KCl, 2 […]
1.5 U of DNA gyrase from E. coli or S. aureus, 0.75 μg of relaxed pNO1 plasmid, and 3 μL solution of the inhibitor in 1 0% DMSO and 0.008% Tween 20. Reaction solutions were incubated at 37 °C […]
for 30 min. After that, the TF buffer (50 mM NaOAc with pH 5.0, 50 mM NaCl and 50 mM MgCl2) was added to terminate the enzymatic reaction. After additional incubation for 30 min at rt, during which biotin-oligonucleotide-plasmid triplex was formed, the unbound plasmid was washed off using TF buffer and SybrGOLD in T10 buffer (10 mM Tris HCl wit h pH 8.0 and 1 mM EDTA) was added. The fluorescence was measured with a microplate reader (BioTek Synergy H4, excitation: 485 nm, emission: 535 nm). […]
tested compounds. GraphPad Prism software was used to calculate the IC50 values. The result is given as the average value of three independent measurements. […]

The subject of a further series is B. subtilis. Description: MIC by twofold serial dilution. The format is cell-based, Bacillus subtilis (ATCC 6051). As for the experimental part: (§1) The antibacterial efficacy of compounds 11b, 11e, and 12b was evaluated against Gram-positive bacteria (S. aureus and B. subtilis) and Gram-negative bacteria (E. coli and P. aeruginosa). Table 5 presents the MICs (nM) of these compounds against the evaluated bacteria, utilizing ciprofloxacin as the reference drug, determined through a twofold serial dilution approach on a 96-well microtiter plate ([Frejat F. O. et al., 2022]).
(§2) The antibacterial efficacy of compounds 11b, 11e, and 12b was evaluated against Gram-positive bacteria (S. aureus and B. subtilis) and Gram-negative bacteria (E. coli and P. aeruginosa). The MICs (nM) of the tested compounds against the evaluated bacteria were determined through a twofold serial dilution approach on a 96-well microtiter plate ([Frejat F. O. et al., 2022]). See Appendix A for more details.
(§3) 4.2. Antimicrobial activity
(§4) 4.2.1. Organisms and culture conditions […]
(§5) 4.2.2. Minimum inhibitory concentration assay
(§6) In 96-well microtiter plates and […] of fresh bacterial culture of a single McFarland unit overnight, a double serial dilution of each compound […] in sterile standard saline were prepared to every single source well. Ciprofloxacin antibiotic (5 mg / mL-1) and normal saline were included as standard reference in each assay. The plates were incubated at 37 0C overnight.
(§7) As an indicator of bacterial growth, […] of p -iodonitrotetrazolium violet (INT) was added to each well and incubated at 37 0C for 30 min. MIC values are recorded as the lowest concentration […]
(§8) tetrazolidium salt acts as an electron accepter and is reduced to a red colored formazan product by biological activity organisms. Where bacterial growth was inhibited, the solution in the well remained clear after incubation with INT. […]

A further series deals with S. aureus. Description: MIC by twofold serial dilution. The series is classed as cell-based, Staphylococcus aureus (ATCC 12600). Particulars: Staphylococcus aureus; Gram-positive; read-out: Minimum inhibitory concentration (MIC), S. aureus. As for the experimental part: as §1, §2, §3, §4, §5, §6, §7, §8
The test system of a further series is E. coli. The series can be described thus: MIC by twofold serial dilution. The series is classed as cell-based, Escherichia coli (ATCC 11775). As to conditions: Escherichia coli; Gram-negative; read-out: Minimum inhibitory concentration (MIC), E. coli. The method, then:
as §1, §2, §3, §4, §5, §6, §7, §8

The next series concerns P. aeruginosa. Description: MIC by twofold serial dilution. The format is cell-based, Pseudomonas aeuroginosa (ATCC 10145). Particulars: Pseudomonas aeruginosa; Gram-negative; read-out: Minimum inhibitory concentration (MIC), P. aeruginosa. As for the experimental part:
as §1, §2, §3, §4, §5, §6, §7, §8

The next series can be described thus: in vitro. As to conditions: human, MCF-10A mammary gland epithelial cells (normal cell line).
In a further series the target is EGFR (Homo sapiens, UniProt P00533). Description: EGFR-TK inhibitory assay.
Sequence of EGFR (P00533 669-1210): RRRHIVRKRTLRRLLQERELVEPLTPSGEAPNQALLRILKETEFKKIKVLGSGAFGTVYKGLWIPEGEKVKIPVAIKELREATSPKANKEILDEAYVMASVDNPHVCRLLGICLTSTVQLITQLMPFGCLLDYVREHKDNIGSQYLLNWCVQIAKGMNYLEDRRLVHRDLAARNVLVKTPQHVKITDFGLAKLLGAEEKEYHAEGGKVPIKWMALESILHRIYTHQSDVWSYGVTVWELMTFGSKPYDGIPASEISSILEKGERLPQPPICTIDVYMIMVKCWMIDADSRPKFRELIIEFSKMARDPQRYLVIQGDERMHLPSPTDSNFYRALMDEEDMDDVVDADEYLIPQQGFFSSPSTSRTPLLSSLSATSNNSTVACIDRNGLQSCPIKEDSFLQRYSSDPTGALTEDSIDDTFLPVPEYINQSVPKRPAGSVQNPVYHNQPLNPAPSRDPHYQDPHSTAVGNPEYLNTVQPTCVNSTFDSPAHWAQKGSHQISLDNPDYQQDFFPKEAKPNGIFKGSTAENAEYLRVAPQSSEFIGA
For the next series, the target named is VEGFR-2 (Homo sapiens, UniProt P35968). Description: VEGFR-2 inhibitory assay.
Sequence of VEGFR-2 (P35968 20-1356): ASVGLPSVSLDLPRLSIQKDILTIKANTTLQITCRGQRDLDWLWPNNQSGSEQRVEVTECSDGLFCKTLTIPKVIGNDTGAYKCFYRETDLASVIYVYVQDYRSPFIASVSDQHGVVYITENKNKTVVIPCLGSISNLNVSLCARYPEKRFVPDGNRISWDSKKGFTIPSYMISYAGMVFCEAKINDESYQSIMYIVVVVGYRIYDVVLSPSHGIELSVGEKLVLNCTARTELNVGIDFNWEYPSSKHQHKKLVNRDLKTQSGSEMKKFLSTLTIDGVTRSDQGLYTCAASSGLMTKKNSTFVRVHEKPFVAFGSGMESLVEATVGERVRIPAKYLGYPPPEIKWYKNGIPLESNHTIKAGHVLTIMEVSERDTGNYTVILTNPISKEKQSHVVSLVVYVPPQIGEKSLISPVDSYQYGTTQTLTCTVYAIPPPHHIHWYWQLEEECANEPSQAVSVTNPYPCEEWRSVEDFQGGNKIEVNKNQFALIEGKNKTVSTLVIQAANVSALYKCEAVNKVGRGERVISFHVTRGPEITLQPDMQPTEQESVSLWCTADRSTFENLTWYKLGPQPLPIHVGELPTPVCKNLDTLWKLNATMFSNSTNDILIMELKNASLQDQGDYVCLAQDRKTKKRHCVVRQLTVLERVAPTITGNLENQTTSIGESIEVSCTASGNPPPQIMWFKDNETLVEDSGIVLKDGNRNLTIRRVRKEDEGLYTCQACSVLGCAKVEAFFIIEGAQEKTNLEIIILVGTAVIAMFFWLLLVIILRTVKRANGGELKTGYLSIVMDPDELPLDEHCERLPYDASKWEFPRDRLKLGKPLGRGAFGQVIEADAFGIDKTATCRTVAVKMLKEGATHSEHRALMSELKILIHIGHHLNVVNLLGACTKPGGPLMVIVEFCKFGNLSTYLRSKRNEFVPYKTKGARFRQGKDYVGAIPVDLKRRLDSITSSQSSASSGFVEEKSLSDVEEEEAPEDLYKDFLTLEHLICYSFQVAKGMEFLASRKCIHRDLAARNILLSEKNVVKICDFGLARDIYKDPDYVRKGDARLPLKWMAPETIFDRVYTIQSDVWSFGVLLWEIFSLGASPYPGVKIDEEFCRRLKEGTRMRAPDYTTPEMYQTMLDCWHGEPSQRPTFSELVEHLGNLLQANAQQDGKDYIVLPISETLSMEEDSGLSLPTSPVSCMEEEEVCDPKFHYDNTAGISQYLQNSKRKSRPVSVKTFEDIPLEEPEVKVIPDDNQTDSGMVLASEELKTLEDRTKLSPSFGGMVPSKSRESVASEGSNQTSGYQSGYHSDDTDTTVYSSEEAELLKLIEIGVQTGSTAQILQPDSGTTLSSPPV
For another series, the system named is A-549 cells. The series can be described thus: Antiproliferative MTT assay.
For a further series, the system named is MCF-7 cells. Description: Antiproliferative MTT assay. (Formazan colour is commonly taken as a measure of viable cells.)
The next series relates to Panc-1 cells. Description: Antiproliferative MTT assay.
A further series has as its system HT-29 cells. Description: Antiproliferative MTT assay.
Series [1] relates to four cancer cell lines (A-549, MCF-7, Panc-1, HT-29). The series can be described thus: Antiproliferative MTT assay, average over four cancer cell lines. As to conditions: for GI50: read-out: Antiproliferative activity, Average (GI50).
Excerpt: (§9) Dose-response assays determined the IC50 values for the novel compounds. We derived the reported data from a minimum of two separate experiments, each consisting of three repetitions per concentration.
Assay for antiproliferative effect
In series [2] the target is S. aureus topoisomerase IV. Particulars: read-out: IC50 for S. aureus topoisomerase IV (internal standard value); value stated in the supplementary method, no reference given; cited from earlier work.
In another series the test system is MCF-10A cells. Particulars: 50 µM.
Setting [3] is: Homo sapiens, A549, read-out: Antiproliferative activity IC50 ± SEM, A-549.
The mark [4] stands for this setting: Homo sapiens, MCF7, read-out: Antiproliferative activity IC50 ± SEM, MCF-7.
Setting [5] is: Homo sapiens, PANC-1, read-out: Antiproliferative activity IC50 ± SEM, Panc-1.
The mark [6] stands for this setting: Homo sapiens, HT-29, read-out: Antiproliferative activity IC50 ± SEM, HT-29.

Results on five molecules are retold here after publication PMC12088962, “Design, synthesis, and biological investigation of new thiazole-based derivatives as multi-targeted inhibitors endowed with antiproliferative, antioxidant, and antibacterial properties” (Frontiers in Chemistry, 2025).

In brackets after ≈: the same amount, converted by molar mass. Like-named read-outs stand apart in the source and are kept apart here.

Excerpt for A-549 cells: as §9
Assay for antiproliferative effect
Excerpt for HT-29 cells: as §9
Assay for antiproliferative effect
Excerpt for MCF-7 cells: as §9
Assay for antiproliferative effect
Excerpt for Panc-1 cells: as §9
Assay for antiproliferative effect
Description for VEGFR-2: The outcomes are presented as IC50 values.
was added to each well followed by incubation of 1h and then washing of the plates using buffer.
The enhancement solution was added to each well and the signal was recorded at excitation and
The autophosphorylation percentage inhibition by compounds was calculated using the following equation:
Prepare all the solutions using autoclaved, deionized water and analytical grade reagents.
and store all the reagents at room temperature (unless indicated otherwise).
solution, add 5 mL ultra-pure water; 1×Kinase Assay Buffer: add 25 mL HEPES solution (1 M),
water, adjust pH to 7.5 and constant volume to 500 mL using ultrapure water; 4×Stop solution (40
mM): Mix 0.8 mL of the foregoing EDTA solution, 1 mL 10×Detection Buffer and 8.2 mL ultra-
pure water; 1×Detection Buffer: Mix 1 mL 10×Detection Buffer with 9 mL water; 4×VEGFR
μM) was added to 624 μL 1×Kinase Assay Buffer and mixed; 4×ULight™-labeled JAK1
(substrate) (200 nM, 25 times diluted): 24 μL ULight™-labeled JAK1 (mother liquor
concentration 5 μM) was added to 576 μL 1×Kinase Assay Buffer and mixed; 4×ATP Solution
(40 μM, 250 times diluted): add 3 μL ATP solution (10 mM) to 747 μL 1×Kinase Assay Buffer
2×substrate/ATP Mix: 560 μL foregoing 4×ULight™-labeled JAK1 and 560 μL 4×ATP solution
and mixed (prepared before use). The assays used an ULight-labeled peptide substrate and a
Europium-W1024-labeled antiphosphotyrosine antibody. The VEGFR-2 was purchased from
Carna Biosciences, Inc. (New York, USA). The 384-well plates were obtained from PerkinElmer.
5 μL 2×VEGFR-2 kinase solution (0.5 nM)
was added to 384-well plates homogeneous mixing and pre-reaction at room temperature for 30 min. Next, 2.5 μL 4×Ultra ULightTM-JAK-1(Tyr1023) Peptide (200 nM)/ATP (40 μM) was added to the corresponding wells of a 384-well plate. Negative control: 2.5 μL/well 4×substrate/ATP mixture and 7.5 μL 1×kinase assay buffer in 384-well plate well. Positive control:
μL/well 2×VEGFR-2 kinase solution was added to the 384-well plate, The final concentration of DMSO in the mixing system was 4%. After incubation at room temperature and dark for 60 min, 5 μL 4×stop solution was added to corresponding wells to react for 5 min and then 5 μL 4×detection mix was added to the corresponding wells of a 384-well plate. The mixture was centrifugally mixed and stayed for 60 min at room temperature for color development. The plate was read using a Envision plate reader. The inhibition rate (%) = (positive well reading-compound well reading)/(positive well reading-negative well reading)×100. The corresponding IC50 values were calculated using GraphPad Prism 5.0.

Take `Cc1nc(SCC(=O)c2cc3cc(Br)ccc3oc2=O)sc1C(=O)/C=C/c1ccc(Cl)cc1` [Compound 11e, (E)-6-Bromo-3-(2-((5-(3-(4-chlorophenyl)acryloyl)-4-methylthiazol-2-yl)thio)acetyl)-2H-chromen-2-one]: the 50% inhibitory concentration (IC50) at E. coli DNA gyrase was 190 ± 13 nM; against EGFR, 89 ± 4 nM; on VEGFR-2, 4900 ± 30 nM; with A-549 cells (setting [3]), 37 ± 2 nM; in the series on MCF-7 cells (setting [4]), 43 ± 2 nM; in the series on Panc-1 cells (setting [5]) it was 40 ± 2 nM. The half-inhibitory concentration (IC50) in the series with HT-29 cells (setting [6]) worked out at 42 ± 2 nM. Besides, the “Fold less efficient than ciprofloxacin (MIC), B. subtilis” value in the series on B. subtilis is 2.2 fold. The MIC with B. subtilis (Bacillus subtilis, Gram-positive, read-out: Minimum inhibitory concentration (MIC), B. subtilis) was determined as 0.022 ± 0.001 µM (≈ 0.0123 µg/mL); with S. aureus, 0.027 ± 0.001 µM (≈ 0.0151 µg/mL); in the series on E. coli, 0.048 ± 0.003 µM (≈ 0.0269 µg/mL); in the series on P. aeruginosa it was 0.053 ± 0.003 µM (≈ 0.0297 µg/mL). This molecule showed a viability at 96 h, 50 µM in “in vitro” of 91%. In addition, in series [1], the “Fold less potent than compound 11f (GI50)” value is recorded as 1.5 fold. Also, the GI50 in [1] (Homo sapiens) came to 41 nM.

For the molecule `COc1ccc(/C=C/C(=O)c2sc(SCC(=O)c3cc4cc(Br)ccc4oc3=O)nc2C)cc1` [Compound 11f, (E)-6-Bromo-3-(2-((5-(3-(4-methoxyphenyl)acryloyl)-4-methylthiazol-2-yl)thio)acetyl)-2H-chromen-2-one], the remaining activity at 1 µM at E. coli DNA gyrase worked out at 71%. Moreover, in “in vitro”, the viability at 96 h, 50 µM came to 93%. For the same molecule, the 50% inhibitory concentration (IC50) on EGFR came out at 71 ± 3 nM; against VEGFR-2, 2900 ± 10 nM; in the series on A-549 cells (setting [3]), 25 ± 1 nM; in the series on MCF-7 cells (setting [4]) it was 29 ± 1 nM; with Panc-1 cells (setting [5]) it was 26 ± 1 nM; in the series on HT-29 cells (setting [6]) it was 28 ± 1 nM. Moreover, in the series with A-549 cells (A-549), the “Fold more potent than erlotinib (IC50), A-549” value came to 1.2 fold. Besides, the “Fold more potent than erlotinib (IC50), MCF-7” value with MCF-7 cells (MCF-7) turned out to be 1.4 fold. Also, the GI50 in [1] (Homo sapiens) is 27 nM. Further, in series [1] (four cancer cell lines), the “Fold more active than erlotinib (GI50)” value is recorded as 1.2 fold.

On to `COc1ccc(/C=C/C(=O)c2sc(SCC(=O)c3cc4ccccc4o3)nc2C)cc1` [Compound 12c, (E)-1-(2-((2-(Benzofuran-2-yl)-2-oxoethyl)thio)-4-methylthiazol-5-yl)-3-(4-methoxyphenyl)prop-2-en-1-one], for which the remaining activity at 1 µM on E. coli DNA gyrase amounted to 59%. For the same molecule, the viability at 96 h, 50 µM in “in vitro” was 91%. Further, the half-inhibitory concentration (IC50) on EGFR came to 83 ± 3 nM; against VEGFR-2, 4050 ± 20 nM; in the series with A-549 cells (setting [3]) it was 33 ± 2 nM; with MCF-7 cells (setting [4]) it was 39 ± 2 nM; with Panc-1 cells (setting [5]), 36 ± 2 nM; in the series on HT-29 cells (setting [6]) it was 37 ± 2 nM. Besides, the concentration for 50% growth inhibition (GI50) in series [1] (Homo sapiens) is 36 nM.

With `CO[C@@H]1[C@@H](OC(N)=O)[C@@H](O)[C@H](Oc2ccc3c(O)c(NC(=O)c4ccc(O)c(CC=C(C)C)c4)c(=O)oc3c2C)OC1(C)C` [Novobiocin], the half-maximal inhibitory concentration (IC50) in [2] is 26700 nM.

In the case of “(E)-3-(2-((5-(3-(4-Methoxyphenyl)acryloyl)-4-methylthiazol-2-yl)thio) acetyl)-2H-chromen-2-one [Compound 11c]”, the “RA (residual activity of the enzyme), E. Coli DNA gyrase” value on E. coli DNA gyrase (at 1 μM of compound) came to 68%. Also, in the series on MCF-10A cells, the Cell viability % was 90%. Moreover, the IC50 with A-549 cells (read-out: Antiproliferative activity IC50 ± SEM, A-549, lung cancer A-549, MTT) came to 52 ± 4 nM; in the series on MCF-7 cells (read-out: Antiproliferative activity IC50 ± SEM, MCF-7, breast cancer MCF-7, MTT), 56 ± 4 nM; in the series with Panc-1 cells (read-out: Antiproliferative activity IC50 ± SEM, Panc-1, pancreatic cancer Panc-1, MTT), 54 ± 4 nM; with HT-29 cells (read-out: Antiproliferative activity IC50 ± SEM, HT-29, colon cancer HT-29, MTT) it was 57 ± 4 nM. For the same molecule, in series [1], the “Fold less potent than compound 11f (GI50)” value is listed as “twofold”. In [1] (average IC50 over the four cancer cell lines), the GI50 was found to be 55 nM.

The term IC50 denotes the concentration that gives 50% inhibition. By viability is commonly meant a per cent measure of how many cells are alive, often set against a control. Low values mean more harm to the cells, high ones less harm to the cells. Broadly, the GI50 is the concentration at which growth is held to half of that of the control.
